According to patent publication US20150031572A1, “MEANS AND METHODS FOR ASSESSING NEURONAL TOXICITY” (priority 2012, published 2015):
Where a name gives a salt, the structure may show the parent alone. Marks after values point to notes of the source that are not given here.

Test: Plasma metabolite profiling (GC-MS, LC-MS, SPE-LC-MS) of rats dosed once daily over 28 days; treatment ratios versus untreated control
Assay type: in vivo, rat
In short: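 Male and female rats (5/sex/group) dosed once daily for 28 days; fasted anaesthetized animals bled retro-orbitally (EDTA plasma) on days 7, 14, 28, stored −80 °C under N2. Polar and lipid fractions profiled by GC-MS (derivatized), LC-MS/MRM; steroids by online SPE-LC-MS. Pool-normalized data; treatment ratios vs sex-matched controls, Welch test p-values.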

[1] = plasma, female rats, day 7, high dose, Table 4a
[2] = plasma, female rats, day 7, high dose, Table 4b
[3] = plasma, female rats, day 7, high dose, Table 6c
[4] = plasma, female rats, day 7, high dose, Table 6d
[5] = plasma, female rats, day 14, high dose, Table 4a
[6] = plasma, female rats, day 14, high dose, Table 4b
[7] = plasma, female rats, day 14, high dose, Table 6c
[8] = plasma, female rats, day 14, high dose, Table 6d
[9] = plasma, female rats, day 28, high dose, Table 4a
[10] = plasma, female rats, day 28, high dose, Table 4b
[11] = plasma, female rats, day 28, high dose, Table 6c
[12] = plasma, female rats, day 28, high dose, Table 6d
[13] = plasma, male rats, day 7, high dose, Table 3a
[14] = plasma, male rats, day 7, high dose, Table 3b
[15] = plasma, male rats, day 14, high dose, Table 3a
[16] = plasma, male rats, day 14, high dose, Table 3b
[17] = plasma, male rats, day 28, high dose, Table 3a
[18] = plasma, male rats, day 28, high dose, Table 3b
[19] = plasma, female rats, day 28, high dose, Table 6a
[20] = plasma, female rats, day 28, high dose, Table 6b
[21] = plasma, female rats, day 7, high dose, Table 7b
[22] = plasma, female rats, day 14, high dose, Table 7a
[23] = plasma, female rats, day 14, high dose, Table 7b
[24] = plasma, female rats, day 28, high dose, Table 7a
[25] = plasma, female rats, day 28, high dose, Table 7b

O=C1Cc2cc(CCN3CCN(c4nsc5ccccc45)CC3)c(Cl)cc2N1 [Ziprasidone hydrochloride]
Ceramide (d18:1,C24:1), ratio versus control [1]: 1.23 | Docosapentaenoic acid (C22:cis[7,10,13,16,19]5), ratio versus control [1]: 2.26* | Elaidic acid (C18:trans[9]1), ratio versus control [1]: 1.52* | Galactose, lipid fraction, ratio versus control [1]: 1.46* | Myristic acid (C14:0), ratio versus control [1]: 1.53* | Phosphatidylcholine (C16:0,C16:0), ratio versus control [1]: 1.4* | Progesterone, ratio versus control [1]: 9.81* | TAG No 07, ratio versus control [1]: 3.4* | Creatinine, ratio versus control [2]: 0.87 | Glutamate, ratio versus control [2]: 0.67* | Glycine, ratio versus control [2]: 0.86* | Lactate, ratio versus control [2]: 0.6* | Myristic acid (C14:0), ratio versus control [2]: 1.53 | Normetanephrine, ratio versus control [2]: 0.73* | Phosphocreatine, ratio versus control [2]: 0.61* | Serotonin (5-HT), ratio versus control [2]: 0.11* | Uric acid, ratio versus control [2]: 0.51* | 4-Hydroxysphinganine (t18:0, Phytosphingosine), total, ratio versus control [3]: 1.49* | Docosahexaenoic acid (C22:cis[4,7,10,13,16,19]6), ratio versus control [3]: 1.7* | Docosapentaenoic acid (C22:cis[7,10,13,16,19]5), ratio versus control [3]: 2.26* | Galactose, lipid fraction, ratio versus control [3]: 1.46* | Palmitic acid (C16:0), ratio versus control [3]: 1.56* | Phosphatidylcholine (C16:0,C16:0), ratio versus control [3]: 1.4* | Phosphatidylcholine (C16:0,C22:6), ratio versus control [3]: 1.02 | Phosphatidylcholine No 02, ratio versus control [3]: 1.17* | TAG (C16:0,C16:1), ratio versus control [3]: 4.38* | TAG (C16:0,C18:1,C18:3), ratio versus control [3]: 2.8* | TAG (C16:0,C18:2), ratio versus control [3]: 2.47* | TAG (C18:2,C18:2), ratio versus control [3]: 2.44* | TAG (C18:2,C18:3), ratio versus control [3]: 3.48* | TAG (C18:3,C18:2,C18:1), ratio versus control [3]: 3.89* | TAG No 059, ratio versus control [3]: 3.12* | 4-Hydroxyphenylpyruvate, ratio versus control [4]: 0.42* | Glycine, ratio versus control [4]: 0.86* | Lactate, ratio versus control [4]: 0.6* | Lysophosphatidylcholine (C16:0), ratio versus control [4]: 0.99* | Uric acid, ratio versus control [4]: 0.51* | Ceramide (d18:1,C24:1), ratio versus control [5]: 1.47* | Docosapentaenoic acid (C22:cis[7,10,13,16,19]5), ratio versus control [5]: 1.55* | Elaidic acid (C18:trans[9]1), ratio versus control [5]: 0.97 | Galactose, lipid fraction, ratio versus control [5]: 1.17* | Myristic acid (C14:0), ratio versus control [5]: 1.09 | Phosphatidylcholine (C16:1,C18:2), ratio versus control [5]: 1.06 | Progesterone, ratio versus control [5]: 1.28 | TAG No 07, ratio versus control [5]: 0.62 | myo-Inositol, lipid fraction, ratio versus control [5]: 1.26* | Creatinine, ratio versus control [6]: 1.02 | Glutamate, ratio versus control [6]: 0.71* | Glycine, ratio versus control [6]: 0.86* | Lactate, ratio versus control [6]: 0.66 | Myristic acid (C14:0), ratio versus control [6]: 1.09 | Normetanephrine, ratio versus control [6]: 0.88 | Serotonin (5-HT), ratio versus control [6]: 0.59 | Uric acid, ratio versus control [6]: 0.5* | 4-Hydroxysphinganine (t18:0, Phytosphingosine), total, ratio versus control [7]: 1.43* | Docosahexaenoic acid (C22:cis[4,7,10,13,16,19]6), ratio versus control [7]: 1.43* | Docosapentaenoic acid (C22:cis[7,10,13,16,19]5), ratio versus control [7]: 1.55* | Galactose, lipid fraction, ratio versus control [7]: 1.17* | Phosphatidylcholine (C16:0,C20:5), ratio versus control [7]: 0.99 | Phosphatidylcholine (C16:0,C22:6), ratio versus control [7]: 1.22* | Phosphatidylcholine (C16:1,C18:2), ratio versus control [7]: 1.06 | Phosphatidylcholine No 02, ratio versus control [7]: 1.19* | TAG (C16:0,C16:1), ratio versus control [7]: 0.81 | TAG (C16:0,C18:1,C18:3), ratio versus control [7]: 0.76 | TAG (C16:0,C18:2), ratio versus control [7]: 0.91 | TAG (C18:2,C18:2), ratio versus control [7]: 0.81 | TAG (C18:2,C18:3), ratio versus control [7]: 0.76 | TAG (C18:3,C18:2,C18:1), ratio versus control [7]: 0.91 | TAG No 059, ratio versus control [7]: 0.84 | 4-Hydroxyphenylpyruvate, ratio versus control [8]: 0.21* | Glycine, ratio versus control [8]: 0.86* | Lactate, ratio versus control [8]: 0.66 | Lysophosphatidylcholine (C16:0), ratio versus control [8]: 1 | Uric acid, ratio versus control [8]: 0.5* | Ceramide (d18:1,C24:1), ratio versus control [9]: 1.2 | Docosapentaenoic acid (C22:cis[7,10,13,16,19]5), ratio versus control [9]: 1.54* | Elaidic acid (C18:trans[9]1), ratio versus control [9]: 1.18 | Galactose, lipid fraction, ratio versus control [9]: 1.22 | Myristic acid (C14:0), ratio versus control [9]: 1.18 | Phosphatidylcholine (C16:1,C18:2), ratio versus control [9]: 1.5* | Progesterone, ratio versus control [9]: 2.41* | TAG No 07, ratio versus control [9]: 1.02 | myo-Inositol, lipid fraction, ratio versus control [9]: 1.2 | Creatinine, ratio versus control [10]: 0.89* | Glutamate, ratio versus control [10]: 0.76* | Glycine, ratio versus control [10]: 0.91 | Lactate, ratio versus control [10]: 0.62* | Myristic acid (C14:0), ratio versus control [10]: 1.18 | Normetanephrine, ratio versus control [10]: 0.95 | Phosphocreatine, ratio versus control [10]: 0.47 | Serotonin (5-HT), ratio versus control [10]: 1.37 | Uric acid, ratio versus control [10]: 0.73* | Docosahexaenoic acid (C22:cis[4,7,10,13,16,19]6), ratio versus control [11]: 1.26 | Docosapentaenoic acid (C22:cis[7,10,13,16,19]5), ratio versus control [11]: 1.54* | Galactose, lipid fraction, ratio versus control [11]: 1.22 | Palmitic acid (C16:0), ratio versus control [11]: 1.2* | Phosphatidylcholine (C16:0,C20:5), ratio versus control [11]: 1.17* | Phosphatidylcholine (C16:1,C18:2), ratio versus control [11]: 1.5* | Phosphatidylcholine No 02, ratio versus control [11]: 1.2* | TAG (C16:0,C16:1), ratio versus control [11]: 1.75* | TAG (C16:0,C18:1,C18:3), ratio versus control [11]: 1.3* | TAG (C16:0,C18:2), ratio versus control [11]: 1.38* | TAG (C18:2,C18:3), ratio versus control [11]: 1.46* | TAG (C18:3,C18:2,C18:1), ratio versus control [11]: 1.44* | TAG No 059, ratio versus control [11]: 1.58* | 4-Hydroxyphenylpyruvate, ratio versus control [12]: 1.02 | Glycine, ratio versus control [12]: 0.91 | Lactate, ratio versus control [12]: 0.62* | Lysophosphatidylcholine (C16:0), ratio versus control [12]: 0.98* | Uric acid, ratio versus control [12]: 0.73* | 3-Methoxytyrosine, ratio versus control [13]: 1.12 | Arginine, ratio versus control [13]: 1.22* | Tryptophan, ratio versus control [13]: 1.1 | Glycine, ratio versus control [14]: 0.82* | Threonic acid, ratio versus control [14]: 0.66* | Arginine, ratio versus control [15]: 1.11* | myo-Inositol-2-phosphate, lipid fraction, ratio versus control [15]: 1.44* | Glycine, ratio versus control [16]: 0.95 | Threonic acid, ratio versus control [16]: 0.52* | 3-Methoxytyrosine, ratio versus control [17]: 1.47* | Arginine, ratio versus control [17]: 0.98 | Tryptophan, ratio versus control [17]: 1.18* | myo-Inositol-2-phosphate, lipid fraction, ratio versus control [17]: 1.63* | Glycine, ratio versus control [18]: 0.86* | Threonic acid, ratio versus control [18]: 0.63* | 3-Methoxytyrosine, ratio versus control (rat, in vivo): 1.33* | 4-Hydroxysphinganine (t18:0, Phytosphingosine), total, ratio versus control (rat, in vivo): 1.16* | Palmitic acid (C16:0), ratio versus control (rat, in vivo): 1.12* | Phosphatidylcholine (C16:0,C16:0), ratio versus control (rat, in vivo): 1.32* | Phosphatidylcholine (C16:0,C20:5), ratio versus control (rat, in vivo): 1.05* | Phosphatidylcholine (C16:0,C22:6), ratio versus control (rat, in vivo): 1.15* | Phosphatidylcholine (C16:1,C18:2), ratio versus control (rat, in vivo): 1.41* | TAG (C18:2,C18:2), ratio versus control (rat, in vivo): 1.41* | Tryptophan, ratio versus control (rat, in vivo): 1.16* | myo-Inositol, lipid fraction, ratio versus control (rat, in vivo): 1.41* | myo-Inositol-2-phosphate, lipid fraction, ratio versus control (rat, in vivo): 1.41*

C#C[C@]1(O)CC[C@H]2[C@@H]3CCc4cc(O)ccc4[C@H]3CC[C@@]21C [17-alpha-Ethynylestradiol]
3-Methoxytyrosine, ratio versus control [19]: 1.29* | Isoleucine, ratio versus control [19]: 1.07 | 4-Hydroxy-3-methoxyphenylglycol (HMPG), ratio versus control [20]: 0.7* | 14-Methylhexadecanoic acid, ratio versus control [20]: 0.86* | 16-Methylheptadecanoic acid, ratio versus control [20]: 0.29* | 17-Methyloctadecanoic acid, ratio versus control [20]: 0.46* | Ceramide (d18:1,C24:1), ratio versus control [20]: 0.6* | Choline plasmalogen No 03, ratio versus control [20]: 0.38* | Homovanillic acid (HVA), ratio versus control [20]: 0.47* | Isopalmitic acid (C16:0), ratio versus control [20]: 0.51* | Lactate, ratio versus control [20]: 0.99 | Myristic acid (C14:0), ratio versus control [20]: 0.59* | Phosphatidylcholine (C16:0, C20:4), ratio versus control [20]: 0.78* | Phosphatidylcholine No 04, ratio versus control [20]: 0.39* | Pyruvate, ratio versus control [20]: 0.87*

CCCC(C)C1(CC)C(=O)NC(=O)NC1=O (stereo not shown) [Pentobarbital sodium i.p., Pentobarbital sodium]
3-Indoxylsulfate, ratio versus control (rat, in vivo): 1.44 * | Cysteine, ratio versus control (rat, in vivo): 0.64 * | Ketoleucine, ratio versus control (rat, in vivo): 1.09 | Malate, ratio versus control (rat, in vivo): 0.83 * | Pantothenic acid, ratio versus control (rat, in vivo): 1.14^ | Phosphate (inorganic and organic phosphates), ratio versus control (rat, in vivo): 1.21 * | Phosphatidylcholine (C16:0, C20:4), ratio versus control (rat, in vivo): 1 * | Phosphatidylcholine (C16:0, C22_6), ratio versus control (rat, in vivo): 0.94 * | alpha-Tocopherol, ratio versus control (rat, in vivo): 1.23 *

Fc1ccc([C@@H]2CCNC[C@H]2COc2ccc3c(c2)OCO3)cc1 [Paroxetine hydrochloride]
alpha-Tocopherol, ratio versus control (plasma, female rats, day 7, high dose, Table 7a): 1.08 | Adrenaline (Epi-nephrine), ratio versus control [21]: 0.19* | Glutamate, ratio versus control [21]: 0.7* | Serotonin (5-HT), ratio versus control [21]: 0.09* | 4-Hydroxysphinganine (t18:0, Phytosphingosine), total, ratio versus control [22]: 1.9* | Threonine, ratio versus control [22]: 1.65* | alpha-Tocopherol, ratio versus control [22]: 1.31* | Adrenaline (Epi-nephrine), ratio versus control [23]: 0.36* | Glutamate, ratio versus control [23]: 0.68* | Serotonin (5-HT), ratio versus control [23]: 0.07* | 4-Hydroxysphinganine (t18:0, Phytosphingosine), total, ratio versus control [24]: 2.11* | Threonine, ratio versus control [24]: 1.4* | Adrenaline (Epi-nephrine), ratio versus control [25]: 0.89 | Glutamate, ratio versus control [25]: 0.85 | Serotonin (5-HT), ratio versus control [25]: 0.04* | 4-Hydroxysphinganine (t18:0, Phytosphingosine), total, ratio versus control (rat, in vivo): 1.99* | Threonine, ratio versus control (rat, in vivo): 1.41* | alpha-Tocopherol, ratio versus control (rat, in vivo): 1.32*
